Test results from PMC6199744, “Development of Chemical Proteomics for the Folateome and Analysis of the Kinetoplastid Folateome” (ACS Infectious Diseases, 2018).
Where two headings read alike, the source gives them in different places.

Legend:
Assay type in all cases: binding
[1] = target: T1, HeLa cell extract proteins (Homo sapiens, UniProt P49736)
T1 construct: endogenous in cells; host or cells: HeLa cell extract

[2] = target: T2, HeLa cell extract proteins (Homo sapiens, UniProt P52888)
T2 construct: endogenous in cells; host or cells: HeLa cell extract

[3] = target: T3, HeLa cell extract proteins (Homo sapiens, UniProt P62081)
T3 construct: endogenous in cells; host or cells: HeLa cell extract

[4] = target: T4, HeLa cell extract proteins (Homo sapiens, UniProt Q01469)
T4 construct: endogenous in cells; host or cells: HeLa cell extract

[5] = target: T5, HeLa cell extract proteins (Homo sapiens, UniProt Q12904)
T5 construct: endogenous in cells; host or cells: HeLa cell extract
T5 sequence (Q12904 1-312): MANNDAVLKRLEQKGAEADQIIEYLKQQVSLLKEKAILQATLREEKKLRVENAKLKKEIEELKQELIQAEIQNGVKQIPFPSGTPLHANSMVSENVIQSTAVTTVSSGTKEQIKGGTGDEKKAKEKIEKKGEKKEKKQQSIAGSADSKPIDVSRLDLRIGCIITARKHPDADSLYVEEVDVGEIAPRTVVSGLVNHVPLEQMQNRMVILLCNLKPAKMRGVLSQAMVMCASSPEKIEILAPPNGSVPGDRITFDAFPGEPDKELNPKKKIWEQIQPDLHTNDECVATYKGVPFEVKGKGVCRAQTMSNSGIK

[6] = target: T6, HeLa cell extract proteins (Homo sapiens, UniProt Q9P2J5)
T6 construct: endogenous in cells; host or cells: HeLa cell extract

[7] = target: T7, HeLa cell extract proteins (Homo sapiens, UniProt O75323); conditions: protein GBAS; HeLa
T7 construct: endogenous in cells; host or cells: HeLa cell extract
T7 sequence (O75323 24-286): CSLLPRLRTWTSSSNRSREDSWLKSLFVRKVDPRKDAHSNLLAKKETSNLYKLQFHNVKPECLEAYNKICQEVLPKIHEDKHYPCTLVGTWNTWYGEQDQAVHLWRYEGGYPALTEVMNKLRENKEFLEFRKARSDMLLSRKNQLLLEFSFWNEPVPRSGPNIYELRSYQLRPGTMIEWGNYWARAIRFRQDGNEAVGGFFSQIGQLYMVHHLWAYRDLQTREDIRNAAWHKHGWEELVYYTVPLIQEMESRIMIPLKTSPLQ

[8] = target: T8, HeLa cell extract proteins (Homo sapiens, UniProt Q08945); conditions: protein SSRP1; HeLa
T8 construct: endogenous in cells; host or cells: HeLa cell extract

[9] = target: T9, HeLa cell extract proteins (Homo sapiens, UniProt Q8N0W3); conditions: protein FUK; HeLa
T9 construct: endogenous in cells; host or cells: HeLa cell extract
T9 sequence (Q8N0W3 1-1084): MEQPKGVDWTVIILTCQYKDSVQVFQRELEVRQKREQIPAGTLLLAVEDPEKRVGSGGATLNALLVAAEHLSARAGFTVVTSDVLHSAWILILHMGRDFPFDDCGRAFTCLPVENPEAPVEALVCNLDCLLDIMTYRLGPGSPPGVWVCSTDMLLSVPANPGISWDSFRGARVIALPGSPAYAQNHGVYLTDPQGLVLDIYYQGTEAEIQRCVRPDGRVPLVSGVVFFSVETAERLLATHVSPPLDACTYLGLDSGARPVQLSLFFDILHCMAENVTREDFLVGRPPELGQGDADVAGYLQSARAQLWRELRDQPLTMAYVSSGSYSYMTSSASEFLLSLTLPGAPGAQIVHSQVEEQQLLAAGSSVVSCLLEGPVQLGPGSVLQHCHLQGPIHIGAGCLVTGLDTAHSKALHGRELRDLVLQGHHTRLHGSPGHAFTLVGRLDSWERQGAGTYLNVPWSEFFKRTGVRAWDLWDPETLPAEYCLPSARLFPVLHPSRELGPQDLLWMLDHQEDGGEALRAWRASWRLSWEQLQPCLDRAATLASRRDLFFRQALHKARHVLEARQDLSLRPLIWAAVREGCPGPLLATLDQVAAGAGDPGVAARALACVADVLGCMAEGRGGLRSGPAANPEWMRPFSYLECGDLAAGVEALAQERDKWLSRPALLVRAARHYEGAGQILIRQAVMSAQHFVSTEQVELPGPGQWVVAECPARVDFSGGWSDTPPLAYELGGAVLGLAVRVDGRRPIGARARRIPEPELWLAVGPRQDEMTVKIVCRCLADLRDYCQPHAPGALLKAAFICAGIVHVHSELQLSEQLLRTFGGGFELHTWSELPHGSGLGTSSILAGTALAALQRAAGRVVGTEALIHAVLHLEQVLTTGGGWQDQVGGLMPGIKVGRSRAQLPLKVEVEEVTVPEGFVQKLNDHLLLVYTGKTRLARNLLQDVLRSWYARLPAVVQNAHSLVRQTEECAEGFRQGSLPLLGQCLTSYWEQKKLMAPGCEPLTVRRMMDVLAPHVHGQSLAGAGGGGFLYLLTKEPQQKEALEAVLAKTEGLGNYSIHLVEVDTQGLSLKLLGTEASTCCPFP

[10] = target: T10, HeLa cell extract proteins (Homo sapiens, UniProt Q96RQ3); conditions: captured protein MCCC1; HeLa
T10 construct: endogenous in cells; host or cells: HeLa cell extract
T10 sequence (Q96RQ3 42-725): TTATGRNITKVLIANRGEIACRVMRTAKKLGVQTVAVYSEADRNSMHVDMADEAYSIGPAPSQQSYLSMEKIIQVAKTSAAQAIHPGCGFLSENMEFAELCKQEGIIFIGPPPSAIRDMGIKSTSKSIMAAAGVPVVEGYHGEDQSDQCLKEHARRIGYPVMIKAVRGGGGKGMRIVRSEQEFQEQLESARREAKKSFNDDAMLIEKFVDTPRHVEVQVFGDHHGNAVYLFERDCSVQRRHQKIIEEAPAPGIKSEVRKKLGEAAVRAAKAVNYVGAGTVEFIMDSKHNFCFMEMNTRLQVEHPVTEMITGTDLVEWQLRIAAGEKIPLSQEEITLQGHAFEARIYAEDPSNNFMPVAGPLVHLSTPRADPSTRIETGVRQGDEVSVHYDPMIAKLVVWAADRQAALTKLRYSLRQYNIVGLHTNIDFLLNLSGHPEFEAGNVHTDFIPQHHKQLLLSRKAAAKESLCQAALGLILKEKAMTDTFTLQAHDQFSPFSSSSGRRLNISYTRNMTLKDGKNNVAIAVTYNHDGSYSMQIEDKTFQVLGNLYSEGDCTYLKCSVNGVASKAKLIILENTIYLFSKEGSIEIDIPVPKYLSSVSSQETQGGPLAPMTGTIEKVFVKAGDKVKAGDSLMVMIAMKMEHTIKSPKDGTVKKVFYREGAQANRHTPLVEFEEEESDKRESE

[11] = target: T11, HeLa cell extract proteins (Homo sapiens, UniProt Q9BSJ2); conditions: captured protein TUBGCP2; HeLa
T11 construct: endogenous in cells; host or cells: HeLa cell extract
T11 sequence (Q9BSJ2 whole entry): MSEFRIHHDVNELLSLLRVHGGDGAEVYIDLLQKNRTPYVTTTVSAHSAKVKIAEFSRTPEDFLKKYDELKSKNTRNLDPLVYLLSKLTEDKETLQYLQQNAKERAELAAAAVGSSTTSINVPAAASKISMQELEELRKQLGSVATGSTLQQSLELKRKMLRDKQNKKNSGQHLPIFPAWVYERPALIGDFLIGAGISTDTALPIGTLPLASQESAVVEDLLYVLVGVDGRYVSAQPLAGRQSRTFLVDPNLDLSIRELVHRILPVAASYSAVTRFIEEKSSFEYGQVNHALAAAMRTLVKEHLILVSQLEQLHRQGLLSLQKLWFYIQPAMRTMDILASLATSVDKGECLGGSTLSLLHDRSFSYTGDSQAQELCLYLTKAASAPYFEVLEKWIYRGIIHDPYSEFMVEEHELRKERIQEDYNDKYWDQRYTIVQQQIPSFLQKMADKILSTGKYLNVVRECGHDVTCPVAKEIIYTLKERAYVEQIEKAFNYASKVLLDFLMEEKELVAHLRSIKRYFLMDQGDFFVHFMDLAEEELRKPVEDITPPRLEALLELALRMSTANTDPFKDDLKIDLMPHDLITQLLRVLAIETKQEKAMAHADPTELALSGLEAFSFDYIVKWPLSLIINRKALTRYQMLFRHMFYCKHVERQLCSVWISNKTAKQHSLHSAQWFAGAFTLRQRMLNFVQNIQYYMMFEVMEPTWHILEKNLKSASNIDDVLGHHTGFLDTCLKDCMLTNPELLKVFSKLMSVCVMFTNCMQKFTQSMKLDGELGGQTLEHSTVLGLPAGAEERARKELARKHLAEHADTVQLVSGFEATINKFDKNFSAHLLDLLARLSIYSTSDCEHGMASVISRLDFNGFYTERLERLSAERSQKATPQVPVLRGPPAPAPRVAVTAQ

T1 sequence (P49736 whole entry): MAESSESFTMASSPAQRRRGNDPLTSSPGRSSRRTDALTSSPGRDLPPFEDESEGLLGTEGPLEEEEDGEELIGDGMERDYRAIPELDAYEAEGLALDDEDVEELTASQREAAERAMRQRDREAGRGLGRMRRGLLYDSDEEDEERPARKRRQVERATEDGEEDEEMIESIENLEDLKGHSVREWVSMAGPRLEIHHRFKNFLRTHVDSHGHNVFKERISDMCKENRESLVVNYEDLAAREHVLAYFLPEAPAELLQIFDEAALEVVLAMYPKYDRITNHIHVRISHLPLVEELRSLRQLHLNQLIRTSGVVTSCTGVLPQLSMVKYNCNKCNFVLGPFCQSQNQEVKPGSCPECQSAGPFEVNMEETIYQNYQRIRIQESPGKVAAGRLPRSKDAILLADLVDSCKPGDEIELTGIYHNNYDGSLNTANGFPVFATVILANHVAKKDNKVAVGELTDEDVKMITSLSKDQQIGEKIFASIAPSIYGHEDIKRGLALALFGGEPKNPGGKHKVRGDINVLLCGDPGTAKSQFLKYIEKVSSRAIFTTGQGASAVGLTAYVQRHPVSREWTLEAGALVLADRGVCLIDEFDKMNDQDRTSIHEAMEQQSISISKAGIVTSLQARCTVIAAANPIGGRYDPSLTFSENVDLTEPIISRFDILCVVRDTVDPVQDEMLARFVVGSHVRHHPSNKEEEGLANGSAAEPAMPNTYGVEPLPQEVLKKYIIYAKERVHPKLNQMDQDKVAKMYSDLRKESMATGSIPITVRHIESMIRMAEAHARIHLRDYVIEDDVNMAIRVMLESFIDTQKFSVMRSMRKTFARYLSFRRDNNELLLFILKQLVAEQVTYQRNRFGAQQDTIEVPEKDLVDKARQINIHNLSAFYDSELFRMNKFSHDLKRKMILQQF
T6 sequence (Q9P2J5 whole entry): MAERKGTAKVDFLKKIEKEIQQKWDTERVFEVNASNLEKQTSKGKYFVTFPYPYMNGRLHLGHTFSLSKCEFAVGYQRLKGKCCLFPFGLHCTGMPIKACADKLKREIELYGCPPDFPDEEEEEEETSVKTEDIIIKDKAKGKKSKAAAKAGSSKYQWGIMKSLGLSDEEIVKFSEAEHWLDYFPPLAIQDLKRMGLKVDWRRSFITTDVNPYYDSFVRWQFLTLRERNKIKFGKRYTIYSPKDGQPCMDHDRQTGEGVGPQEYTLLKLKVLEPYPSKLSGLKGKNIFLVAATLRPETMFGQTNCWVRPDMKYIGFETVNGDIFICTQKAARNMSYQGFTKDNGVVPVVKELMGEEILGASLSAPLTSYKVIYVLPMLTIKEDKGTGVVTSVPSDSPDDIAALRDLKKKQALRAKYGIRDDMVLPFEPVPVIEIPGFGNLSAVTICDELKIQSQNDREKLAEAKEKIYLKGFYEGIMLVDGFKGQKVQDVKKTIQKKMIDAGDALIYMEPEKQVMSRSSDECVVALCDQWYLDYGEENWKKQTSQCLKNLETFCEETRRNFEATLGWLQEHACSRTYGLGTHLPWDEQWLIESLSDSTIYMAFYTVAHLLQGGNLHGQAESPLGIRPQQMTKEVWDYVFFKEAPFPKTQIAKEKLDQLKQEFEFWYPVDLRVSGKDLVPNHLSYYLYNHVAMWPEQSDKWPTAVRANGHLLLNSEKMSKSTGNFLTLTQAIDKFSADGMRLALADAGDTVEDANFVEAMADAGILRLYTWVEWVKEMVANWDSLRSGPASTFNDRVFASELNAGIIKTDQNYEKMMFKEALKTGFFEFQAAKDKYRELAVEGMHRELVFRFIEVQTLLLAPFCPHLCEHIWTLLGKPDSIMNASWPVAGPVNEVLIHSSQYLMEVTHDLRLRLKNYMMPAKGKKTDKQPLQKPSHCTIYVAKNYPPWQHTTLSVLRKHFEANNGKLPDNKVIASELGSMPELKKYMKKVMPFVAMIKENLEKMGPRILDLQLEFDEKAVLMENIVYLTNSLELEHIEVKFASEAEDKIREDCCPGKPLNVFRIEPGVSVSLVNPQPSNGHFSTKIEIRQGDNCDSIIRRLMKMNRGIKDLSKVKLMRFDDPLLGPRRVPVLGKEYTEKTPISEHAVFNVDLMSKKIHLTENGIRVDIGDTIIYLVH
T4 sequence (Q01469 whole entry): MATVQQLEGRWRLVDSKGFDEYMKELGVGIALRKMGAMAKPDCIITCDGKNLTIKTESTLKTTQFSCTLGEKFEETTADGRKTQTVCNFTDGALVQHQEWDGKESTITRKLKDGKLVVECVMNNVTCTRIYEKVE
T8 sequence (Q08945 whole entry): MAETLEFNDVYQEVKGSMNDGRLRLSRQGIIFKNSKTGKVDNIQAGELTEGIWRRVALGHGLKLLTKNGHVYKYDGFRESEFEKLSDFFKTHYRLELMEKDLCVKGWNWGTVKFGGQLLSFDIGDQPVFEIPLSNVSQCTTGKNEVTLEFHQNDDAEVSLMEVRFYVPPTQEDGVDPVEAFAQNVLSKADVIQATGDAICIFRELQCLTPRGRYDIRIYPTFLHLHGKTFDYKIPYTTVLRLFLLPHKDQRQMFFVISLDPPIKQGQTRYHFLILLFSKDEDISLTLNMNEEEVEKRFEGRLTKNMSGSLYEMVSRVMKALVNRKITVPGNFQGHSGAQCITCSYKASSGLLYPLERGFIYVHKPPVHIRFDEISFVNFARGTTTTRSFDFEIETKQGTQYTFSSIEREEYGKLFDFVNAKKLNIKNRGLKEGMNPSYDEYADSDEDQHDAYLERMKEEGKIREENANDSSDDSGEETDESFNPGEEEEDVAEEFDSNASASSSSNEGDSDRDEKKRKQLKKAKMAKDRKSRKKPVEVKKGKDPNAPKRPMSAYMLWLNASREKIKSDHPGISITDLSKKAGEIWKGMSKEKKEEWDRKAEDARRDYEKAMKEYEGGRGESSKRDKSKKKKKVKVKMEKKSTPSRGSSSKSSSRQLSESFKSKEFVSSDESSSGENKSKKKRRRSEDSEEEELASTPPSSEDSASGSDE
T2 sequence (P52888 whole entry): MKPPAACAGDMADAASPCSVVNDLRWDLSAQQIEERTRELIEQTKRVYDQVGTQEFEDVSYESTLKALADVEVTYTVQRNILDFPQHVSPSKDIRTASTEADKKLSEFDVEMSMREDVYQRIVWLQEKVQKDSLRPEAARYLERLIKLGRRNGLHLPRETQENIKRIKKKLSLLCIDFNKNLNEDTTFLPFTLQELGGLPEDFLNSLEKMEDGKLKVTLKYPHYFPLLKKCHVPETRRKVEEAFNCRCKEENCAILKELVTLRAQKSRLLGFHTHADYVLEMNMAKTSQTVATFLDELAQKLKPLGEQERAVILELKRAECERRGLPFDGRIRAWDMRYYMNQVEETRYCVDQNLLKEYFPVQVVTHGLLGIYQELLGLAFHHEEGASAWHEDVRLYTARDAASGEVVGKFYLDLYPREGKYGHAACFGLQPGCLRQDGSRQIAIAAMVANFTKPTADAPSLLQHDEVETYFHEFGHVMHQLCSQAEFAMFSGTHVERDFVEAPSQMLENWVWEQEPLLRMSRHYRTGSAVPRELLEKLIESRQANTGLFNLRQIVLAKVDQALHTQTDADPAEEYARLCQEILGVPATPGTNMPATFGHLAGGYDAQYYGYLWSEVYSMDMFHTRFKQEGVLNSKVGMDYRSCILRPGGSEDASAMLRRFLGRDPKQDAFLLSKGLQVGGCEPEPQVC

Structure (SMILES)	fold changes relative to vehicle control ([1]; HeLa, protein MCM2)	fold changes relative to vehicle control ([2]; protein THOP1, HeLa)	fold changes relative to vehicle control ([3]; HeLa, protein RPS7)	fold changes relative to vehicle control ([4]; protein FABP5, HeLa)	fold changes relative to vehicle control ([5]; HeLa, protein SCYE1)	fold changes relative to vehicle control ([6]; HeLa, protein LARS)	fold changes relative to vehicle control [7]	fold changes relative to vehicle control [8]	fold changes relative to vehicle control [9]	fold changes relative to vehicle control [10]	fold changes relative to vehicle control [11]	further results
Nc1nc2c(c(=O)[nH]1)N(C=O)C(CNc1ccc(C(=O)N[C@@H](CCC(=O)O)C(=O)O)cc1)CN2 (stereo partly drawn) [LEU, leucovorin]	1.06	0.87	0.94	1	0.85	1.04						
Nc1nc2[nH]cc(CCc3ccc(C(=O)N[C@@H](CCC(=O)O)C(=O)O)cc3)c2c(=O)[nH]1 [PTX, pemetrexed]												fold changes relative to vehicle control [1]: 1.05; fold changes relative to vehicle control [2]: 0.95; fold changes relative to vehicle control [3]: 0.92; fold changes relative to vehicle control [4]: 1.45; fold changes relative to vehicle control [5]: 0.91; fold changes relative to vehicle control [6]: 1.11
CCCCCCOc1ccc(Cc2cnc(N)nc2N)cc1 [compound 1]							1.26	0.93	0.96	1.03	0.76	
CCCCCCOc1cccc(Cc2cnc(N)nc2N)c1 [compound 2]							1.29	1.44	1.11	1.15	1.01	
Nc1nc2cccc(-c3ccccc3)c2n1Cc1ccc(Cl)c(Cl)c1 [compound 3]							1.01	0.95	1.07	1.21	0.99	
NCCOCCOCC(=O)Nc1nc2ncc(CNc3ccc(C(=O)NC(CCC(=O)O)C(=O)O)cc3)nc2c(=O)[nH]1 (stereo not drawn) [compound 6]	1.18	1.16	1.06	1.3	0.99	1						
NCCCNc1ccc(C(=O)NC(CCC(=O)O)C(=O)O)cc1 (stereo not drawn) [compound 7]	0.88	0.83	0.88	1.1	0.86	1.13						
